Holding throughout (type): cell-based
The subject of data set [1] is p53 target genes. The experiment in a line: qRT-PCR of p53 target genes. The conditions noted are these: U87 cells. The procedure: For most RNA experiments, RNA was isolated from cells using the Qiagen™ RNeasy minikit. Complementary DNA was generated using the Qiagen™ Quantitect™ reverse transcription kit with 0.5 μg of input RNA as measured with a NanoDrop spectrophotometer (Thermo Scientific™). Real-time PCR was carried out on an ABI StepOne Plus™ machine using power SYBR Green dye (Thermo Scientific™). Transcript levels were assayed in triplicate and normalized to RPL32 and HPS90 mRNAs. Relative changes in cDNA levels were calculated using the comparative Ct method (ΔΔCT method). All RT-qPCR primers were designed with Primer3Plus™ or retrieved from Primerbank™. Primer sequences are listed here, including in Table 3. All primers were purchased from Life Technologies™. H. Generation of p53 Knock Out U87 Cell Lines by CRISPR
This also is consistent with p53 activation. FIG. 27 presents RT-qPCR analysis of C9ORF72, CDKN1A (p21), NOXA, PUMA, GLUT1, MDM2 and GLUT3 mRNA levels in U87 cells treated with control (siCtrl) and C9 (siC9; SEQ ID NO:631) siRNA. These studies were performed using three biological replicates (n=3); error bars represent S.E.M. Statistical significance was assessed by an unpaired t-test: NS P>0.05, *P≤0.05, **P≤0.01, ***P≤0.001 ****P≤0.0001.

Data set [2] deals with HeLa cells. The experiment in a line: Mitochondrial live imaging in HeLa cells. The note with it: vs control. The protocol:
Mitochondrial accumulation then was investigated in other cell lines. C9 KD was performed in HeLa cells, followed by a fluorescent mitochondrial dye for live imaging. […] To study the mitochondrial dysfunction phenotype upon C9 KD in a non-cancer cell line, C9 was knocked down in rat-derived cortical neurons in combination with a mitochondrial stain.

For data set [3], the system named is γ-H2AX. Kind of data set: γ-H2AX western blot and foci quantitation. The note with it: U87 cells. The procedure: Cells were treated with control and C9 siRNA for three days. Cells then were fixed and stained as described in the as described above with p-H2AX(S139, #25575) antibody. For a DNA damage positive control, 0.5 μM doxorubicin hydrochloride (Sigma™, D151510MG) was used for 24 hours before imaging. Cells were then imaged using LSM 700 Carl Zeiss™. To quantify p-H2AX foci we used a publicly available software FoCo™ as described previously.
To further confirm the presence of DNA damage upon C9 KD, the DNA damage marker γ-H2AX was used as a probe on C9 KD. […] Immunofluorescence was used to image and quantitate γ-H2AX foci in control, C9 KD and doxorubicin-treated U87 cells.
FIG. 25A is a WB showing γ-H2AX and ubiquitinated γ-H2AX, control (siCtrl) and C9 KD (siC9; SEQ ID NO:631), with loading of control actin. FIG. 25B is a set of IF images of U87 cells stained for γ-H2AX (green). FIG. 25C is a graph quantitating about 90 cells (from three biological replicates) for γ-H2AX foci per cell between control (siCtrl) C9 KD (siC9) and DOX-treated U87 cells. Statistical significance was assessed by an unpaired t-test: NS P>0.05, *P≤0.05, **P≤0.01, ***P≤0.001 ****P≤0.0001.

The subject of data set [4] is U87 p53 null KO #4 cells. Kind of data set: Vacuoles in p53 null cells transfected with HA tagged wtp53. The note with it: U87 p53 null KO #4 cells transfected with HA tagged wtp53. The procedure:
To provide further evidence of p53 involvement in vacuolization, it was tested whether p53 transfection into p53 null cell lines in C9 KD background induced accumulation of vacuoles. […] In FIG. 36A, phase contrast images (40×) are shown of U87 p53 null KO #4 cells that were transfected with HA tagged wtp53 and then treated with control (siCtrl) or C9 (siC9; SEQ ID NO:631) siRNA. The black boxes show the location of the zoomed in images below with black arrows pointing to vacuoles. […] FIG. 36C is a graph that presents quantitation of data from about 100 cells, indicating the number of vacuoles per cell for conditions described above. Statistical significance was assessed by unpaired t-test: NS P>0.05, *P≤0.05, **P≤0.01, ***P≤0.001 ****P≤0.0001.

The test system of data set [5] is U87 cells. Kind of data set: Mitochondrial imaging (MitoTracker) and MiNA quantitation. The protocol: Mitchondria imaging in U87 cell was performed with MitoTracker™ Red CMXRos (ThermoFisher™, M7512) according to the manufacturer's protocol. Cells then were imaged as described herein.
Quantitation was performed using a publicly available macro MiNA for ImageJ™ as described.
The vacuoles were studied to investigate whether they are swollen mitochondria, because several reports observed vacuolated mitochondria in ALS patients and mice models that resemble the phenotype seen here. A fluorescent mitochondrial dye was used to visualize mitochondria upon C9 KD. […] See FIG. 5A and FIG. 5B, which show an IF image of U87 cells treated as in Example 1 and stained with MitoTracker (red) and nuclei stained with DAPI (blue).
To obtain the data seen in FIG. 6, the stained mitochondria from FIG. 5 were IF stained and analyzed using MiNA software for ImageJ™.

The test system of data set [6] is cortical neurons. Kind of data set: C9 knockdown in neurons and live imaging of mitochondria. The note with it: rat-derived cortical neurons. The procedure:
Cortices from E19 embryonic brains from pregnant Sprague-Dawley female rats were dissected in ice-cold HBSS (ThermoFisher™ Scientific #24020117), supplemented with 10 mM HEPES (pH 7.4), 10 mM MgCl2, 1% P/S and 0.5 mM L-glutamine. The hippocampal tissue was discarded and only the cortical tissue was trypsinized for 15 minutes at 37° C. in a water bath and resuspended in DMEM with 10% FBS and 1% P/S. The dissociated neurons were subjected to centrifugation to remove debris, counted and plated onto MatTek™ 35 mm or 50 mm glass bottom dishes pre-coated with Poly-L-Lysine (1 mg/mL) and Laminin, at a density of 100,000 for live imaging experiments. After about 12-15 hours, the medium was changed to Neurobasal medium supplemented with 0.5 mM L-Glutamine, B-27 serum free supplement (Gibco™) and 1% P/S. Media were changed every 2-3 days.
Day 7 cortical neurons were transfected with 80 nM C9orf72 siRNA and 40 ng CMV-GFP vector using a magnetofectamine kit (OZ Biosciences™ #MTX0750). […]

Consider “siC9: siRNA targeting C9 mRNA: UUAAUGAAACAAUAAUCACUC (SEQ ID NO:631; sense) and GUGAUUAUUGUUUCAUUAAUC (SEQ ID NO:632; antisense) (listed as RNA, chemistry not given here)”, for which the “mRNA levels of p53 target genes (p21, MDM2, NOXA, PUMA)” value in data set [1] is “elevated”. Also, the “mRNA levels of repression targets (GLUT1 and GLUT3)” value in data set [1] is recorded as “lower mRNA levels”. Further, the mitochondrial network organization result is “mitochondrial network disorganization” in data set [2] and “significant mitochondrial network disorganization” in data set [5] (vs control). Besides, in data set [3], the “γ-H2AX levels (western blot)” value is on record as “increased γ-H2AX levels”. The “γ-H2AX foci per cell” value in data set [3] (immunofluorescence) is reported as “significant increase in γ-H2AX foci”. Moreover, the vacuoles per cell result in data set [4] is on record as “significant increase”. Moreover, the “total amount of individual and networked mitochondria staining” value in data set [5] (MiNA) is listed as “increased”. Besides, the “mitochondrial dye staining of vacuoles” value in data set [5] (MitoTracker) is listed as “did not stain red”. Besides, the mitochondria motility entry in data set [6] is given as “significantly reduced”. Also, the mitochondria accumulation entry in data set [6] (dendrites) is “induced mitochondria accumulation in the dendrites”.

Source of the values: patent US20210108199A1, “Treatment for aggressive cancers by targeting C9ORF72” (The Trustees of Columbia University in the City of New York, priority 2017, published 2021).
